From the supplement of paper PMC10307832

Columns and labels:
Experiment in all cases: relative viability (nuclei count vs DMSO), 5 days (fraction); higher = more cells survive
[1] = compound: CCOC1=CC=CC=C1N=NC2=C(NN(C2=O)C3=NC(=CS3)C4=CC=CC=C4)C [BAM7] + CC(=O)Nc1cccc(-n2c(=O)n(C3CC3)c(=O)c3c(Nc4ccc(I)cc4F)n(C)c(=O)c(C)c32)c1 [Trametinib] (partner 0.02 µM)
Method in brief: (§1)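 Relative viability equals treated-well nuclei counts divided by vehicle-well nuclei counts. Counts came from 4× images of lung cancer cell lines grown in 1536-well plates for 5 days after pin-tool dosing on the day after seeding. Dosing used one drug alone or a fixed anchor-drug dose plus five library-drug doses (not always all listed) in √10 steps, and values are medians of duplicate plates.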

[2] = compound: CCOC1=CC=CC=C1N=NC2=C(NN(C2=O)C3=NC(=CS3)C4=CC=CC=C4)C [BAM7] + CC(=O)c1c(C)c2cnc(Nc3ccc(N4CCNCC4)cn3)nc2n(C2CCCC2)c1=O [Palbociclib] (partner 0.5 µM)
Method in brief: as §1

[3] = compound: CCOC1=CC=CC=C1N=NC2=C(NN(C2=O)C3=NC(=CS3)C4=CC=CC=C4)C [BAM7] + CC1(C)CCC(c2ccc(Cl)cc2)=C(CN2CCN(c3ccc(C(=O)NS(=O)(=O)c4ccc(N[C@H](CCN5CCOCC5)CSc5ccccc5)c(S(=O)(=O)C(F)(F)F)c4)cc3)CC2)C1 [Navitoclax] (partner 0.5 µM)
Method in brief: as §1

[4] = compound: CCOC1=CC=CC=C1N=NC2=C(NN(C2=O)C3=NC(=CS3)C4=CC=CC=C4)C [BAM7] + C[C@]1(O)C[C@@H](c2nc(-c3ccc4ccc(-c5ccccc5)nc4c3)c3c(N)nccn32)C1 [Linsitinib] (partner 1 µM)
Method in brief: as §1

[5] = compound: CCOC1=CC=CC=C1N=NC2=C(NN(C2=O)C3=NC(=CS3)C4=CC=CC=C4)C [BAM7] + Cc1nc(Nc2ncc(C(=O)Nc3c(C)cccc3Cl)s2)cc(N2CCN(CCO)CC2)n1 [Dasatinib] (partner 0.075 µM)
Method in brief: as §1

Cell Line | relative viability ([1]; first compound 0.5 µM) | relative viability ([1]; first compound 5 µM) | relative viability ([1]; first compound 15.81 µM) | relative viability ([1]; first compound 50 µM) | relative viability ([2]; first compound 0.5 µM) | relative viability ([2]; first compound 5 µM) | relative viability ([2]; first compound 15.81 µM) | relative viability ([2]; first compound 50 µM) | relative viability ([3]; first compound 0.5 µM) | relative viability ([3]; first compound 5 µM) | relative viability ([3]; first compound 15.81 µM) | relative viability ([3]; first compound 50 µM) | relative viability ([4]; first compound 0.5 µM) | relative viability ([4]; first compound 5 µM) | relative viability ([4]; first compound 15.81 µM) | relative viability ([4]; first compound 50 µM) | relative viability ([5]; first compound 0.5 µM) | relative viability ([5]; first compound 5 µM) | relative viability ([5]; first compound 15.81 µM) | relative viability ([5]; first compound 50 µM)
HCC-827 | 0.535 | 0.548 | 0.591 | 0.556 | 0.532 | 0.467 | 0.493 | 0.481 | 1.06 | 1.04 | 0.914 | 0.939 | 0.957 | 0.912 | 0.905 | 0.881 | 0.29 | 0.234 | 0.313 | 0.264
HOP-62 | 0.37 | 0.416 | 0.376 | 0.352 | 0.45 | 0.385 | 0.454 | 0.491 | 1.03 | 1.23 | 1.04 | 1.06 | 1.09 | 1.23 | 0.904 | 0.756 | 0.636 | 0.727 | 0.601 | 0.649
LC-2-ad | 0.884 | 0.91 | 0.87 | 0.847 | 0.487 | 0.478 | 0.545 | 0.485 | 0.548 | 0.532 | 0.422 | 0.464 | 0.856 | 0.898 | 0.812 | 0.783 | 0.8 | 0.555 | 0.546 | 0.639
LCLC-97TM1 | 0.202 | 0.199 |  | 0.224 | 0.272 | 0.185 |  | 0.186 | 0.569 | 0.401 | 0.419 | 0.61 | 0.174 | 0.184 | 0.176 | 0.179 | 1.05 | 1.04 | 0.881 | 0.945
LK-2 | 0.737 | 0.945 | 0.811 | 0.841 | 0.662 | 0.648 | 0.741 | 0.598 | 0.896 | 0.893 | 0.886 | 0.85 | 0.675 | 0.708 | 0.629 | 0.59 | 0.242 | 0.299 | 0.255 | 0.447
LOU-NH91 | 0.794 | 0.788 | 0.804 | 0.805 | 0.458 | 0.569 | 0.538 | 0.517 | 0.708 | 0.75 | 0.69 | 0.655 | 0.912 | 0.936 | 0.893 | 0.996 | 0.495 | 0.658 | 0.535 | 0.552
LU99A | 0.54 | 0.548 | 0.552 | 0.575 | 0.425 | 0.372 | 0.383 | 0.414 | 0.787 | 0.849 | 0.72 | 0.821 | 0.565 | 0.542 | 0.491 | 0.6 | 0.661 | 0.642 | 0.577 | 0.476
LXF-289 | 0.739 | 0.762 | 0.734 | 0.641 | 0.63 | 0.62 | 0.616 | 0.616 | 0.96 | 1.04 | 0.93 | 0.907 | 1.02 | 1.04 | 0.955 | 0.962 | 0.276 | 0.235 | 0.256 | 0.253
NCI-H23 | 0.314 | 0.423 | 0.389 | 0.462 | 0.612 | 0.479 | 0.466 | 0.519 | 0.978 | 0.846 | 0.921 | 0.934 | 0.507 | 0.663 | 0.698 | 0.679 | 0.892 | 0.813 | 0.732 | 0.868
NCI-H322M | 0.525 | 0.577 | 0.496 | 0.571 | 0.527 | 0.564 | 0.524 | 0.509 | 1.3 | 1.22 | 1.18 | 1.06 | 0.892 | 0.805 | 0.949 | 0.845 | 0.271 | 0.287 | 0.287 | 0.281
NCI-H441 | 0.522 | 0.518 | 0.498 | 0.496 | 0.285 | 0.191 | 0.205 | 0.267 | 0.688 | 0.772 | 0.635 | 0.956 | 0.547 | 0.597 | 0.648 | 0.399 | 0.607 | 0.583 | 0.71 | 0.724
NCI-H460 | 0.0937 | 0.124 | 0.145 | 0.13 | 0.179 | 0.148 | 0.216 | 0.165 | 1.36 | 1.36 | 1.03 | 1.08 | 1.02 | 0.765 | 0.653 | 0.754 | 0.51 | 0.622 | 0.443 | 0.691
NCI-H520 | 0.595 | 0.782 | 0.804 | 0.789 | 0.262 | 0.233 | 0.235 | 0.26 | 1.09 | 1.2 | 1.11 | 1.18 | 0.916 | 1.03 | 1.08 | 0.87 | 0.184 | 0.171 | 0.207 | 0.245
NCI-H647 | 0.457 | 0.599 | 0.494 | 0.445 | 0.506 | 0.431 | 0.509 | 0.447 | 1.11 | 1.16 | 0.899 | 1.14 | 1.27 | 1.32 | 1.13 | 1.12 | 0.175 | 0.193 | 0.203 | 0.248
NCI-H727 | 0.413 | 0.414 | 0.393 | 0.386 | 0.579 | 0.689 | 0.714 | 0.731 | 0.419 | 0.458 | 0.471 | 0.441 | 0.273 | 0.416 | 0.314 | 0.245 | 0.351 |  | 0.469 | 0.312
NCI-H838 | 0.504 | 0.524 | 0.498 | 0.494 | 0.24 | 0.243 | 0.222 | 0.218 | 1.2 | 1.19 | 1.14 | 1.12 | 1.12 | 1.06 | 0.982 | 0.994 | 0.36 | 0.297 | 0.295 | 0.335
